Assay in all cases: KRas binding assay, TR-FRET displacement of Cy5 labelled tracer
What all share (settings): 60-minute incubation at room temperature, 1% DMSO, pH 7.5
A general note: Time-resolved FRET reads energy transfer from a long-lived donor to a nearby acceptor.

Test [1] deals with T1, KRas WT (Homo sapiens, UniProt P01116).
T1 construct: Biotinylated KRas (corresponding to amino acids 1-169, produced at Accelegan Inc.); biotin (biotinylated); purchased Accelegan Inc
The procedure: (§1) This Example illustrates that exemplary compounds of the present invention bind to KRas and are capable of displacing a labeled tracer ligand occupying the KRas binding site. KRas^WT, KRas^G12A, KRas^G12C, KRas^G12D, KRas^G12R, KRas^G12S, KRas^G12V, KRas^G13D, or KRas^Q61H was used in the assay.
(§2) The ability of a compound to bind to KRas was measured using a TR-FRET displacement assay. Biotinylated KRas (corresponding to amino acids 1-169, produced at Accelegan Inc.) was incubated with custom made Cy5 labelled tracer, terbium streptavidin (Cisbio Inc.) and compound (1% DMSO final) in buffer (50 mM HEPES, pH 7.5, 5 mM MgCl2, 0.005% Tween-20 and 1 mM DTT). After a 60-minute incubation at room temperature, the reaction was measured using a BMG LABTECH CLARIO star Plus via TR-FRET. […] The POC values were fit to a 4-parameter IC50 equation and the IC50 value reported.

Test [2] has as its target T2, KRas G12C (Homo sapiens, UniProt P01116, G12C).
T2 construct: Biotinylated KRas (corresponding to amino acids 1-169, produced at Accelegan Inc.); biotin (biotinylated); purchased Accelegan Inc
The procedure:
as §1, §2

The target in test [3] is T3, KRas G12S (Homo sapiens, UniProt P01116, G12S).
T3 construct: Biotinylated KRas (corresponding to amino acids 1-169, produced at Accelegan Inc.); biotin (biotinylated); purchased Accelegan Inc
T3 sequence (P01116 1-169 isoform P01116-2 G12S): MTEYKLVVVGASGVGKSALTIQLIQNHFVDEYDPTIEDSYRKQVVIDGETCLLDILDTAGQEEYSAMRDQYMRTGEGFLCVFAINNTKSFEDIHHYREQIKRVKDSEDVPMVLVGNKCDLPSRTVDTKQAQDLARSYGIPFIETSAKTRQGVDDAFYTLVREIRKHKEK
The procedure: as §1, §2

T2 sequence (P01116 1-169 isoform P01116-2 G12C): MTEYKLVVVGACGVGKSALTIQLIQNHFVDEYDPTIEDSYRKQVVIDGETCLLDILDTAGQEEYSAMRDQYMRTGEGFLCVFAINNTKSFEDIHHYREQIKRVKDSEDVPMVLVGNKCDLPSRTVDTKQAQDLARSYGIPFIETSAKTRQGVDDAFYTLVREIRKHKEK
T1 sequence (P01116 1-169 isoform P01116-2): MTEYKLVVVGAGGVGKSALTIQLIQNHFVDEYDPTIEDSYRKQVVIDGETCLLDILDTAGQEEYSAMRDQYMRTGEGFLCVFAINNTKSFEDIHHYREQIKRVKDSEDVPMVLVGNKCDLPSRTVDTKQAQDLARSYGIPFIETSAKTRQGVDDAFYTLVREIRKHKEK

Consider `O=C1OCCN1C(=O)C1CCN(c2nc(OCC34CCCN3CCC4)nc3c(F)c(-c4cccc5cccc(F)c45)ncc23)CC1` [Example 2, 3-(1-(8-fluoro-7-(8-fluoronaphthalen-1-yl)-2-((tetrahydro-1H-pyrrolizin-7a(5H)-yl)methoxy)pyrido[4,3-d]pyrimidin-4-yl)piperidine-4-carbonyl)oxazolidin-2-one], for which the IC50 in test [1] was 73900 nM; in test [2] it was > 100000 nM; in test [3] it was 72500 nM.

With `O=C(Nc1ccccn1)C1CCN(c2nc(OCC34CCCN3CCC4)nc3c(F)c(-c4cccc5cccc(F)c45)ncc23)CC1` [Example 3, 1-(8-fluoro-7-(8-fluoronaphthalen-1-yl)-2-((tetrahydro-1H-pyrrolizin-7a(5H)-yl)methoxy)pyrido[4,3-d]pyrimidin-4-yl)-N-(pyridin-2-yl)piperidine-4-carboxamide], the IC50 in test [1] came to 649 nM; in test [2], 582 nM; in test [3], 346 nM.

Consider `O=C(Oc1c(F)cccc1F)[C@@H]1[C@@H]2C[C@H]1CN(c1nc(OCC34CCCN3CCC4)nc3c(F)c(-c4cccc5cccc(F)c45)ncc13)C2` [Example 5, 2,6-difluorophenyl (1R,5S,6r)-3-(8-fluoro-7-(8-fluoronaphthalen-1-yl)-2-((tetrahydro-1H-pyrrolizin-7a(5H)-yl)methoxy)pyrido[4,3-d]pyrimidin-4-yl)-3-azabicyclo[3.1.1]heptane-6-carboxylate], for which the half-maximal inhibitory concentration (IC50) in test [1] was 34400 nM; in test [2], 7570 nM; in test [3], 26500 nM.

For the compound `O=C(Oc1c(F)cccc1F)[C@H]1[C@@H]2C[C@H]1CN(c1nc(OCC34CCCN3CCC4)nc3c(F)c(-c4cccc5cccc(F)c45)ncc13)C2` [Example 6, 2,6-difluorophenyl (1R,5S,6s)-3-(8-fluoro-7-(8-fluoronaphthalen-1-yl)-2-((tetrahydro-1H-pyrrolizin-7a(5H)-yl)methoxy)pyrido[4,3-d]pyrimidin-4-yl)-3-azabicyclo[3.1.1]heptane-6-carboxylate], the IC50 in test [1] was 8060 nM; in test [2], 10600 nM; in test [3], 7950 nM.

Consider `O=C(Oc1ccc(F)cc1)[C@@H]1[C@@H]2C[C@H]1CN(c1nc(OCC34CCCN3CCC4)nc3c(F)c(-c4cccc5cccc(F)c45)ncc13)C2` [Example 7, 4-fluorophenyl (1R,5S,6r)-3-(8-fluoro-7-(8-fluoronaphthalen-1-yl)-2-((tetrahydro-1H-pyrrolizin-7a(5H)-yl)methoxy)pyrido[4,3-d]pyrimidin-4-yl)-3-azabicyclo[3.1.1]heptane-6-carboxylate], for which the IC50 in test [1] was found to be 24200 nM; in test [2] it was 20400 nM; in test [3], 21200 nM.

Take `O=C(Oc1ccc(F)cc1)[C@H]1[C@@H]2C[C@H]1CN(c1nc(OCC34CCCN3CCC4)nc3c(F)c(-c4cccc5cccc(F)c45)ncc13)C2` [Example 8, 4-fluorophenyl (1R,5S,6s)-3-(8-fluoro-7-(8-fluoronaphthalen-1-yl)-2-((tetrahydro-1H-pyrrolizin-7a(5H)-yl)methoxy)pyrido[4,3-d]pyrimidin-4-yl)-3-azabicyclo[3.1.1]heptane-6-carboxylate]: the IC50 in test [1], in test [2] and in test [3] was > 100000 nM in each case.

As for `Cc1cc(C)n(C(=O)C2CCN(c3nc(OCC45CCCN4CCC5)nc4c(F)c(-c5cccc6cccc(F)c56)ncc34)CC2)n1` [Example 9, (3,5-dimethyl-1H-pyrazol-1-yl)(1-(8-fluoro-7-(8-fluoronaphthalen-1-yl)-2-((tetrahydro-1H-pyrrolizin-7a(5H)-yl)methoxy)pyrido[4,3-d]pyrimidin-4-yl)piperidin-4-yl)methanone], the figures for the IC50 in test [1], in test [2] and in test [3] were 64600 nM, 30600 nM and 31500 nM, respectively.

In the case of `Cc1ccn(C(=O)C2CCN(c3nc(OCC45CCCN4CCC5)nc4c(F)c(-c5cccc6cccc(F)c56)ncc34)CC2)n1` [Example 10, (1-(8-fluoro-7-(8-fluoronaphthalen-1-yl)-2-((tetrahydro-1H-pyrrolizin-7a(5H)-yl)methoxy)pyrido[4,3-d]pyrimidin-4-yl)piperidin-4-yl)(3-methyl-1H-pyrazol-1-yl)methanone], the IC50 in test [1] is 43900 nM; in test [2], 19600 nM; in test [3], 4670 nM.

As to `O=C(C1CCN(c2nc(OCC34CCCN3CCC4)nc3c(F)c(-c4cccc5cccc(F)c45)ncc23)CC1)n1cccn1` [Example 11, (1-(8-fluoro-7-(8-fluoronaphthalen-1-yl)-2-((tetrahydro-1H-pyrrolizin-7a(5H)-yl)methoxy)pyrido[4,3-d]pyrimidin-4-yl)piperidin-4-yl)(1H-pyrazol-1-yl)methanone], the half-inhibitory concentration (IC50) in test [1] was found to be 9270 nM; in test [2], 8160 nM; in test [3], 3840 nM.

Consider `O=C(Oc1c(F)cc(F)cc1F)C1CCN(c2nc(OCC34CCCN3CCC4)nc3c(F)c(-c4cccc5cccc(F)c45)ncc23)CC1` [Example 12, 2,4,6-trifluorophenyl 1-(8-fluoro-7-(8-fluoronaphthalen-1-yl)-2-((tetrahydro-1H-pyrrolizin-7a(5H)-yl)methoxy)pyrido[4,3-d]pyrimidin-4-yl)piperidine-4-carboxylate], for which the IC50 in test [1] worked out at 48500 nM; in test [2] it was 808 nM; in test [3], 59600 nM.

In the case of `O=C(Oc1ccc(F)cc1F)C1CCN(c2nc(OCC34CCCN3CCC4)nc3c(F)c(-c4cccc5cccc(F)c45)ncc23)CC1` [Example 13, 2,4-difluorophenyl 1-(8-fluoro-7-(8-fluoronaphthalen-1-yl)-2-((tetrahydro-1H-pyrrolizin-7a(5H)-yl)methoxy)pyrido[4,3-d]pyrimidin-4-yl)piperidine-4-carboxylate], the IC50 in test [1] was found to be 28700 nM; in test [2], 272 nM; in test [3], 39000 nM.

Regarding `O=C(Oc1ccc(F)cc1)C1CCN(c2nc(OCC34CCCN3CCC4)nc3c(F)c(-c4cccc5cccc(F)c45)ncc23)CC1` [Example 14, 4-fluorophenyl 1-(8-fluoro-7-(8-fluoronaphthalen-1-yl)-2-((tetrahydro-1H-pyrrolizin-7a(5H)-yl)methoxy)pyrido[4,3-d]pyrimidin-4-yl)piperidine-4-carboxylate], the IC50 in test [1] was 45000 nM; in test [2], 877 nM; in test [3] it was > 100000 nM.

As for `O=C[C@@H]1[C@@H]2CC[C@H]1CN(c1nc(OCC34CCCN3CCC4)nc3c(F)c(-c4cccc5cccc(F)c45)ncc13)C2` [Example 17, (1R,5S,8r)-3-(8-fluoro-7-(8-fluoronaphthalen-1-yl)-2-((tetrahydro-1H-pyrrolizin-7a(5H)-yl)methoxy)pyrido[4,3-d]pyrimidin-4-yl)-3-azabicyclo[3.2.1]octane-8-carbaldehyde], the IC50 in test [1] is 5780 nM; in test [2] it was 1080 nM; in test [3], 15300 nM.

For `O=C(OCC(F)(F)F)[C@@H]1[C@@H]2CC[C@H]1CN(c1nc(OCC34CCCN3CCC4)nc3c(F)c(-c4cccc5cccc(F)c45)ncc13)C2` [Example 18, 2,2,2-trifluoroethyl (1R,5S,8r)-3-(8-fluoro-7-(8-fluoronaphthalen-1-yl)-2-((tetrahydro-1H-pyrrolizin-7a(5H)-yl)methoxy)pyrido[4,3-d]pyrimidin-4-yl)-3-azabicyclo[3.2.1]octane-8-carboxylate], the IC50 was 7970 nM in test [1], 42100 nM in test [2] and 30000 nM in test [3].

Take `COC(=O)[C@@H]1[C@@H]2CC[C@H]1CN(c1nc(OCC34CCCN3CCC4)nc3c(F)c(-c4cccc5cccc(F)c45)ncc13)C2` [Example 19, methyl (1R,5S,8s)-3-(8-fluoro-7-(8-fluoronaphthalen-1-yl)-2-((tetrahydro-1H-pyrrolizin-7a(5H)-yl)methoxy)pyrido[4,3-d]pyrimidin-4-yl)-3-azabicyclo[3.2.1]octane-8-carboxylate]: the values for the concentration for half-maximal inhibition (IC50) in test [1], in test [2] and in test [3] were 2800 nM, 20100 nM and 7460 nM, respectively.

On to `O=C(Oc1ccc(F)c(F)c1)C1CCCN(c2nc(OCC34CCCN3CCC4)nc3c(F)c(-c4cccc5cccc(F)c45)ncc23)CC1` (stereo not drawn) [Example 48, 3,4-difluorophenyl 1-(8-fluoro-7-(8-fluoronaphthalen-1-yl)-2-((tetrahydro-1H-pyrrolizin-7a(5H)-yl)methoxy)pyrido[4,3-d]pyrimidin-4-yl) azepane-4-carboxylate], for which the IC50 in test [2] worked out at 2740 nM; in test [3], 30100 nM.

With `COC(=O)C1CCCN(c2nc(OCC34CCCN3CCC4)nc3c(F)c(-c4cccc5cccc(F)c45)ncc23)CC1` (stereo not drawn) [Example 49, methyl 1-(8-fluoro-7-(8-fluoronaphthalen-1-yl)-2-((tetrahydro-1H-pyrrolizin-7a(5H)-yl)methoxy)pyrido[4,3-d]pyrimidin-4-yl) azepane-4-carboxylate], the IC50 in test [2] stood at 65900 nM; in test [3] it was 54800 nM.

Regarding `O=C(Oc1ccc(C(F)(F)F)cc1)C1CCCN(c2nc(OCC34CCCN3CCC4)nc3c(F)c(-c4cccc5cccc(F)c45)ncc23)CC1` (stereo not drawn) [Example 50, 4-(trifluoromethyl)phenyl 1-(8-fluoro-7-(8-fluoronaphthalen-1-yl)-2-((tetrahydro-1H-pyrrolizin-7a(5H)-yl)methoxy)pyrido[4,3-d]pyrimidin-4-yl) azepane-4-carboxylate], the IC50 stood at 3440 nM in test [2] and 55600 nM in test [3].

As a reminder, the IC50 is the point on the concentration scale where inhibition reaches its midpoint. Lower therefore signals higher potency.

For the origin of these results see US20260356856A1, “KRAS G12S AND G12C INHIBITORS” (MIRATI THERAPEUTICS, INC., priority 2023, published 2026).
